Assay type in all cases: cell-based
The subject of series [1] is P. falciparum 3D7 (chloroquine-sensitive). The series is described as follows: Anti-malarial activity, P. falciparum 3D7 culture, 72 hour, DNA content by flow cytometry. Particulars: synchronized ring-stage parasites. Put shortly: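 Magnet-synchronized ring-stage parasites in RPMI 1640/Albumax II were plated at 0.5% parasitemia, 4% final hematocrit, with compound added as 2× dilutions (2.5 μM to 20 nM) for 72 h. Fixed, Triton-permeabilized cells were stained with SYTOX Green (5 μM final), and DNA content was measured by flow cytometry to derive IC50.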

A further series relates to 3T3 cells. Kind of series: Cytotoxicity against 3T3 cells.
The next series has as its system HepG2 cells. The series is described as follows: Cytotoxicity against HepG2 cells.
Series [2] deals with P. falciparum DD2 (chloroquine-resistant). Kind of series: Anti-malarial activity, P. falciparum DD2 culture, 72 hour, DNA content by flow cytometry. Particulars: synchronized ring-stage parasites. The procedure: Numerous compounds were screened in cultures of the malaria parasite P. falciparum 3D7 (chloroquine-sensitive) and DD2 (chloroquine-resistant). The compounds were also screened for toxixcity against 3T3 cells, HepG2 cells, and in a hemolysis assay. In brief, P. falciparum parasites were cultured in RPMI 1640 (Invitrogen) supplemented with Albumax II (Invitrogen). For synchronization, schizont stage parasites were magnet purified using a SuperMACS™ II Cell Separation Unit (Miltenyi Biotech). For IC50 determinations, synchronized ring-stage parasites were plated at 0.5% parasitemia and 8% hematocrit in 96-well plates at a total volume of 50 μL. Serial dilutions of 2× concentration of the respective compound, ranging from 2.5 μM to 20 nM, were added to the wells to bring the total volume up to 100 μL and 4% hematocrit. Compounds were assayed for a 72 hour period, after which the cultures were fixed with a solution of 4% paraformaldehyde and 0.08% glutaraldhyde in PBS. The cells were then permeabilized with 0.25% Triton X-100, and SYTOX Green Nucleic Acid Stain (Invitrogen) in PBS was added to a final concentration of 5 μM. DNA content, as an indicator of parasitemia, was analyzed on an Accuri C6 Flow Cytometer with C-Sampler. IC50 curves were generated using GraphPad Prism (GraphPad Software).

Series [3] can be described thus: Cytotoxicity against 3T3 cells. Particulars: mouse, 3T3 cells; read-out: Cytotoxicity 3T3 EC50.
A short description of series [4]: Cytotoxicity against HepG2 cells. Particulars: human, HepG2 cells; read-out: Cytotoxicity HepG2 EC50.
A short description of the next series: in vitro.
Where [5] appears, read: Plasmodium falciparum, 3D7, 72 h.

Converted amounts (≈) assume the structure as drawn. Where only a bound is given, the exact number is not on record here.

This note sets out measurements from patent US20150094294A1, “COMPOUNDS AND METHODS FOR TREATING MALARIA” (Cellceutix Corporation, priority 2012, published 2015).

As for `CC(C)(C)c1cc(N)c(SCCN)c(NC(=O)c2cccc(C(=O)Nc3cc(C(C)(C)C)cc(N)c3SCCN)n2)c1` [Compound 117], the results for the IC50 in series [1] and in series [2] were 0.732 µM and 0.803 µM, respectively. Also, the EC50 in the series with 3T3 cells is 5 µM; with HepG2 cells it was 9 µM.

As to `CC(N)C(=O)Nc1ccc(-c2ccc(-c3ccc(NC(=O)C(C)N)cc3)cc2)cc1` (stereo not shown) [Compound 136], the IC50 came to 0.178 µM in series [1] and 0.421 µM in series [2]. The EC50 with 3T3 cells and in the series on HepG2 cells was over 1000 µM each time.

Turning to `N=C(N)NCCSc1ccc(NC(=O)Nc2ccc(SCCNC(=N)N)c(C(F)(F)F)c2)cc1C(F)(F)F` [Compound 120], the IC50 in series [1] was determined as 0.083 µM; in series [2], 0.0459 µM. For the same compound, the EC50 is 65.1 µM in the series with 3T3 cells and 165 µM with HepG2 cells.

For `CC(C)N1CCc2ccc(NC(=O)c3cc(C(=O)Nc4ccc5c(c4)CCN(C(C)C)CC5)ncn3)cc2CC1` [Compound 147], the IC50 in series [1] (setting [5]) came out at 0.696 µM; in series [2] (Plasmodium falciparum) it was 0.829 µM. Also, the EC50 in series [3] was over 100 µM; in series [4] it was over 100 µM; in the series “in vitro” it was 560 µg/mL (≈ 1040 µM).

Consider `NCCN1CCc2ccc(NC(=O)c3cc(C(=O)Nc4ccc5c(c4)CCN(CCN)CC5)ncn3)cc2CC1` [Compound 146], for which the figures for the IC50 in series [1] (setting [5]) and in series [2] (Plasmodium falciparum) were 0.308 µM and 0.331 µM, respectively. The EC50 in series [3] was 373 µM; in series [4], 373 µM; in “in vitro”, 123 µg/mL (≈ 227 µM).

For `FC(F)(F)c1ccc(CN2CCNCC2)cc1Oc1ccc(Oc2cc(CN3CCNCC3)ccc2C(F)(F)F)cc1` [Compound 158], the IC50 was 0.655 µM in series [1] (setting [5]) and 1.09 µM in series [2] (Plasmodium falciparum). Also, the EC50 came out at 14 µM in series [3], 29 µM in series [4] and 17 µg/mL (≈ 28.6 µM) in the series “in vitro”.

Take `O=C(Nc1cc(C(F)(F)F)c(OC2CCNC2)cc1OC1CCNC1)c1cc(C(=O)Nc2cc(C(F)(F)F)c(OC3CCNC3)cc2OC2CCNC2)ncn1` (stereo not shown) [Compound 103]: the figures for the IC50 in series [1] and in series [2] were 0.147 µM and 0.207 µM, respectively. Also, the figures for the EC50 in the series on 3T3 cells and in the series on HepG2 cells were 256 µM and 382 µM, respectively.

As to `N=C(N)N1CCC(Oc2cc(OC3CCN(C(=N)N)C3)c(C(F)(F)F)cc2NC(=O)c2cc(C(=O)Nc3cc(C(F)(F)F)c(O[C@@H]4CCN(C(=N)N)C4)cc3O[C@@H]3CCN(C(=N)N)C3)ncn2)C1` (stereo partly shown) [Compound 111], the IC50 in series [1] (setting [5]) was determined as 0.61 µM; in series [2] (Plasmodium falciparum), 0.431 µM. Moreover, the EC50 stood at 32 µM in series [3], 84 µM in series [4] and 65 µg/mL (≈ 67.5 µM) in “in vitro”.

`COc1ccc(CN)cc1NC(=O)c1cc(C(=O)Nc2cc(CN)ccc2OC)ncn1` [Compound 175]: the IC50 in series [1] (setting [5]) stood at 0.423 µM; in series [2] (Plasmodium falciparum), 0.564 µM. The EC50 is 302 µM in series [3], 362 µM in series [4] and over 1000 µg/mL in “in vitro”.

On to `N=C(N)NCCCCC(=O)Nc1ccc(-c2ccc(NC(=O)CCCCNC(=N)N)c(C(F)(F)F)c2)cc1C(F)(F)F` [Compound 173], for which the IC50 in series [1] (setting [5]) came to 0.204 µM; in series [2] (Plasmodium falciparum), 0.274 µM. Further, the values for the EC50 (in series [3]; in series [4]; in “in vitro”) were over 2000 µM, over 2000 µM and over 1000 µg/mL, respectively.

Turning to `N=C(N)NCCCCOc1cc(OCCCCNC(=N)N)c(C(F)(F)F)cc1NC(=O)c1cc(C(=O)Nc2cc(C(F)(F)F)c(OCCCCNC(=N)N)cc2OCCCCNC(=N)N)ncn1` [Compound 104], the IC50 in series [1] (setting [5]) is 0.2 µM; in series [2] (Plasmodium falciparum), 0.301 µM. Besides, the concentration giving a half-maximal response (EC50) turned out to be 25 µM in series [3], 39 µM in series [4] and 2 µg/mL (≈ 2.06 µM) in “in vitro”.

Turning to `N=C(N)NCCSc1cc(SCCN)c(NC(=O)c2cc(C(=O)Nc3cc(C(F)(F)F)c(SCCNC(=N)N)cc3SCCN)ncn2)cc1C(F)(F)F` [Compound 115], the IC50 in series [1] (setting [5]) amounted to 0.68 µM; in series [2] (Plasmodium falciparum) it was 0.664 µM. Also, the EC50 worked out at 26 µM in series [3], 47 µM in series [4] and 35 µg/mL (≈ 41.7 µM) in “in vitro”.

As for `N=C(N)NCCCOc1cc(OCCCNC(=N)N)c(-c2ccccc2)cc1-c1ccccc1` [Compound 143], the EC50 in the series with 3T3 cells turned out to be 74 µM; with HepG2 cells, 119 µM. In series [2], this compound returned an IC50 of 0.102 µM.

Consider `N=C(N)NCCCc1cc(SCCN)c(NC(=O)c2cc(C(=O)Nc3cc(C(F)(F)F)c(CCCNC(=N)N)cc3SCCN)ncn2)cc1C(F)(F)F` [Compound 116], for which the IC50 came out at 0.706 µM in series [1] (setting [5]) and 0.398 µM in series [2] (Plasmodium falciparum). In addition, the results for the EC50 (in series [3]; in series [4]; in the series “in vitro”) were 76 µM, 95 µM and 39 µg/mL (≈ 48.6 µM), respectively.

As to `N=C(N)NCCCCC(=O)Nc1ccc(-c2nnc(-c3ccc(NC(=O)CCCCNC(=N)N)cc3)o2)cc1` [Compound 131], the IC50 was determined as 0.042 µM in series [1] (setting [5]) and 0.065 µM in series [2] (Plasmodium falciparum). The EC50 in series [3] was 322 µM; in series [4], 356 µM; in “in vitro”, 212 µg/mL (≈ 397 µM).

`N=C(N)NCCCc1cccc(-c2ccc3c4ccc(-c5cccc(CCCNC(=N)N)c5)cc4n(CCCNC(=N)N)c3c2)c1` [Compound 155]: the values for the half-inhibitory concentration (IC50) in series [1] (setting [5]) and in series [2] (Plasmodium falciparum) were 0.272 µM and 0.457 µM, respectively. In addition, the EC50 was 131 µM in series [3], 100 µM in series [4] and 6 µg/mL (≈ 9.73 µM) in the series “in vitro”.

With `CC(C)(C)c1ccc(NC(=O)CCCCNC(=N)N)c(-c2ccc(-c3cc(C(C)(C)C)ccc3NC(=O)CCCCNC(=N)N)cc2)c1` [Compound 141], the IC50 is 0.625 µM in series [1] and 0.709 µM in series [2]. Moreover, the values for the EC50 in the series on 3T3 cells and in the series with HepG2 cells were 28 µM and 55 µM, respectively.

Turning to `N=C(N)NCCCCC(=O)Nc1cc(Br)cc(NC(=O)c2cc(C(=O)Nc3cc(Br)cc(NC(=O)CCCCNC(=N)N)c3SCCO)ncn2)c1SCCO` [Compound 170], the results for the half-maximal inhibitory concentration (IC50) in series [1] (setting [5]) and in series [2] (Plasmodium falciparum) were 0.569 µM and 0.591 µM, respectively. The EC50 in series [3] was found to be 110 µM; in series [4], 165 µM; in the series “in vitro” it was 59 µg/mL (≈ 62.7 µM).

Take `N#Cc1cccc(C(=O)Nc2cc(C(F)(F)F)cc(NC(=O)c3cc(C(=O)Nc4cc(C(F)(F)F)cc(NC(=O)c5cccc(C#N)c5)c4SCCN)ncn3)c2SCCN)c1` [Compound 101]: the IC50 in series [1] (setting [5]) worked out at 0.047 µM; in series [2] (Plasmodium falciparum) it was 0.113 µM. Also, the values for the EC50 (in series [3]; in series [4]; in “in vitro”) were 74.4 µM, 27 µM and 583 µg/mL (≈ 653 µM), respectively.

For the compound `CC(C)(C)c1cc(NC(=O)CCCCNS(C)(=O)=O)c(SCCNS(C)(=O)=O)c(NC(=O)c2cccc(C(=O)Nc3cc(C(C)(C)C)cc(NC(=O)CCCCNS(C)(=O)=O)c3SCCNS(C)(=O)=O)c2)c1` [Compound 107], the IC50 in series [1] (setting [5]) amounted to 0.295 µM; in series [2] (Plasmodium falciparum) it was 0.484 µM. Further, the figures for the EC50 (in series [3]; in series [4]; in the series “in vitro”) were over 1000 µM, over 1000 µM and over 1000 µg/mL, respectively.

`N=C(N)NCCCCOc1cc(OCCCCNC(=N)N)c(C(F)(F)F)cc1NC(=O)Nc1ccc(NC(=O)Nc2cc(C(F)(F)F)c(OCCCCNC(=N)N)cc2OCCCCNC(=N)N)cc1` [Compound 167]: the IC50 in series [1] (setting [5]) was found to be 0.724 µM; in series [2] (Plasmodium falciparum) it was 0.951 µM. For the same compound, the concentration for a half-maximal effect (EC50) in series [3] stood at 37 µM; in series [4] it was 60 µM; in the series “in vitro” it was 7 µg/mL (≈ 7.01 µM).

For `NCCSc1c(N)cc(C(F)(F)F)cc1NC(=O)c1cn(C2CC2)c2cc(N3CCNCC3)c(F)cc2c1=O` [Compound 181], the figures for the IC50 in series [1] (setting [5]) and in series [2] (Plasmodium falciparum) were 0.688 µM and 0.74 µM, respectively. In addition, the EC50 in series [3] was 81 µM; in series [4], 154 µM; in “in vitro”, over 1000 µg/mL.
